{
  "source": "PubChem BioAssay AID1963597",
  "about": "(National Center for Advancing Translational Sciences (NCATS), 2024)",
  "note": "Residues, ends and D or L forms follow the SMILES beside them. *: point of attachment. Hexanoyl = CCCCCC(=O)*",
  "data": [
    {"system": "human liver microsomes, metabolic stability half-life", "assay": "NCATS Human Liver Microsomal (HLM) Stability Profiling", "conditions": "higher = more stable; screened at 1 µM (by protocol)", "in_short": "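Substrate depletion (in vitro t1/2): 1 µM compound with 0.5 mg/mL microsomes and NADPH regenerating system, phosphate buffer pH 7.4, 37 °C. Sampled at 0, 5, 10, 15, 30, 60 min into cold acetonitrile with albendazole internal standard for MS quantification.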", "units": {"half-life": "min"}, "values": [
      {"smiles": "COc1nccc(-c2c(-c3ccc(F)cc3)ncn2C2CCNCC2)n1", "half-life": "> 120"},
      {"smiles": "NC1=NCC2c3ccccc3Cc3ccccc3N12", "note": "(centres undefined)", "half-life": "> 120"},
      {"smiles": "CCCCCCCCCCCCCCCCCCN(C)C", "half-life": "> 120"},
      {"smiles": "CC1CC(C)(C)N(C(=O)CN2C(=O)c3ccccc3C2=O)c2ccccc21", "note": "(centres undefined)", "half-life": 8.38},
      {"smiles": "O=C(O)Cc1ccc2oc(-c3ccc(NC(=O)/C=C/c4ccc(Br)cc4)c(F)c3)nc2c1", "half-life": "> 120"},
      {"smiles": "CCCCCC(=O)N1CCC[C@H]1C(=O)N[C@@H](Cc1ccc(O)cc1)C(=O)OC", "note": "(Hexanoyl-Pro-Tyr-OMe)", "half-life": 7.74},
      {"smiles": "Clc1ccc(C(Cn2ccnc2)OCc2ccc(Sc3ccccc3)cc2)c(Cl)c1", "note": "(centres undefined)", "half-life": 54.1},
      {"smiles": "CC(C)(C)Oc1ccc(OCC2Cc3ccccc3CN2C(=O)c2cccc3ccccc23)cc1", "note": "(centres undefined)", "half-life": 5.19},
      {"smiles": "CC1(C#N)CCN(c2c(C(=O)N3CCN(C(=O)N4CCCC4)CC3)cnc3c(F)cc(F)cc23)CC1", "half-life": 27.2},
      {"smiles": "CCOCc1cc(CN2CCN(c3cccc(C(F)(F)F)c3)CC2)c(O)c2ncccc12", "half-life": 12.6},
      {"smiles": "CCN(CC)C(=O)C(c1ccccc1)N1CCN(c2ccc(NC(=O)c3ccccc3-c3cccnc3)cc2F)CC1", "note": "(centres undefined)", "half-life": 4.93},
      {"smiles": "Cc1cc(O)c2c(c1)C(=O)c1cccc(O)c1C2=O", "half-life": 1.86},
      {"smiles": "CC1=C(c2ccc(NC(=O)c3c(F)cccc3F)cc2)CN(c2nccs2)CC1", "half-life": 38.9},
      {"smiles": "CC(C)(N)c1ncc(-c2ccc(OC(F)(F)F)cc2)[nH]1", "half-life": "> 120"},
      {"smiles": "N#C/C(=C1\\SCC(c2ccccc2Cl)S1)n1ccnc1", "note": "(centres undefined)", "half-life": 86.2},
      {"smiles": "COc1cc(Nc2nc3c(s2)CCCC3c2ccccc2)ccc1-n1cnc(C)c1", "note": "(centres undefined)", "half-life": 31},
      {"smiles": "COc1cccc(CCc2ccccc2OCC(CN(C)C)OC(=O)CCC(=O)O)c1", "note": "(centres undefined)", "half-life": 38.8},
      {"smiles": "O=S(c1cc(Cl)cc(Cl)c1O)c1cc(Cl)cc(Cl)c1O", "half-life": 99.8},
      {"smiles": "COc1cc(-c2nn(C3CCC(N4CCN(C(C)=O)CC4)CC3)c3ncnc(N)c23)ccc1NC(=O)c1cc2ccccc2n1C", "note": "(centres undefined)", "half-life": "> 120"},
      {"smiles": "Fc1ccc([C@@H]2CCNC[C@H]2COc2ccc3c(c2)OCO3)cc1", "half-life": 71.3},
      {"smiles": "CN(C(=O)CN(CCO)CC(=O)N(C)C(C)(C)Cc1ccccc1)C(C)(C)Cc1ccccc1", "half-life": 0.58},
      {"smiles": "O=C(CCNc1c(-c2ccccc2)nc2cnccn12)N1CCCC1", "half-life": 7.99},
      {"smiles": "Cc1ccc(Nc2nc3ccccc3c3nnc(C)n23)c(C)c1", "half-life": 6.47},
      {"smiles": "CC(=O)c1ccc(C(=O)N(Cc2cccnc2)c2nc3c(C)c(C)ccc3s2)cc1", "half-life": 6.25},
      {"smiles": "O=C(O)c1ccc(CN2CCC(CN[C@@H]3C[C@H]3c3ccccc3)CC2)cc1", "half-life": "> 120"},
      {"smiles": "Cc1noc(C)c1-c1cc(O)cc(C(O)c2ccccc2)c1", "note": "(centres undefined)", "half-life": 46.2},
      {"smiles": "C=C1CC[C@@]2(O)[C@H]3Cc4ccc(O)c5c4[C@@]2(CCN3CC2CC2)[C@H]1O5", "half-life": "> 120"},
      {"smiles": "COc1cc(Nc2nc3ccccc3nc2NS(=O)(=O)c2ccc(NC(=O)c3ccc(C)c(OC)c3)cc2)cc(OC)c1", "half-life": "> 120"},
      {"smiles": "CN1C(C)(C)CCCC1(C)C", "half-life": "> 120"},
      {"smiles": "O=C(Nc1cccc(-c2nc3cc(Cl)ccc3o2)c1)c1ccccc1", "half-life": 5.41},
      {"smiles": "Cc1ccc(NC(=O)Cn2c(=O)n(CCC(=O)N3CCc4ccccc4C3)c(=O)c3ccccc32)c(C)c1", "half-life": 1.41},
      {"smiles": "Cc1ccc(Cl)c(OCC(O)CNC(C)(C)C)c1", "note": "(centres undefined)", "half-life": 1.53},
      {"smiles": "OC1(c2ccc(Cl)cc2)c2ccccc2C2=NCCN21", "note": "(centres undefined)", "half-life": 74.4},
      {"smiles": "Clc1ccc2c(c1)Nc1ccccc1S2", "half-life": 6.28},
      {"smiles": "O=C(Cn1cc(SCc2cccc(Cl)c2)c2ccccc21)N1CCCCC1", "half-life": 0.84},
      {"smiles": "Cc1ccc(C(=O)Oc2ccc(C(O)CNC(C)(C)C)cc2OC(=O)c2ccc(C)cc2)cc1", "note": "(centres undefined)", "half-life": 2.27},
      {"smiles": "CC(C)(C)c1cnc(CSc2cnc(NC(=O)C3CCNCC3)s2)o1", "half-life": "> 120"},
      {"smiles": "CC1(C)C(=O)C(C)(C)c2cc(C(=O)Nc3ccc(C(=O)O)cc3)ccc21", "half-life": "> 120"},
      {"smiles": "Cn1cc(-c2[nH]c3cc(NC(=O)[C@H](N)C4CCCCC4)cc4c3c2C=NNC4=O)cn1", "half-life": 102},
      {"smiles": "Clc1ccccc1-c1nc(-c2ccncc2)no1", "half-life": 35.8},
      {"smiles": "COc1cc(=O)n2c(c1C(=O)NCc1ccc3c(c1)OCO3)CCN(C(=O)c1ccc(C)cc1C)CC2", "half-life": 34.4},
      {"smiles": "Cc1nc2c3ccccc3nc(NNC(=O)CCC(=O)N3CCN(c4ccccc4)CC3)n2n1", "half-life": 107},
      {"smiles": "Cc1cc(C(=O)N2CCCCc3ccccc32)ccc1CNC(=O)N1CCC[C@H]1C(=O)N(C)C", "half-life": 6.54},
      {"smiles": "Cc1cccc(N(C)C(=S)Oc2ccc3c(c2)CCC3)c1", "half-life": 1.94},
      {"smiles": "CN1CCN(c2cccc(Nc3nc4c(-c5ccc(S(C)(=O)=O)cc5)cccn4n3)c2)CC1", "half-life": "> 120"},
      {"smiles": "COc1ccc(Cn2c(SCc3ccc(C(=O)NC4CCCC4)cc3)nc3ccncc32)cc1", "half-life": 14.5},
      {"smiles": "C[C@]12CC[C@@H]3c4ccc(O)cc4CC[C@H]3[C@@H]1CCC2=O", "half-life": 34.1},
      {"smiles": "O=C1N(c2ccccc2)c2ccccc2C1(Cc1ccncc1)Cc1ccncc1", "half-life": 1.71},
      {"smiles": "CCOc1ccc(-c2cc(NC(=O)Nc3ccccc3Cl)c(C(=O)OC)s2)cc1", "half-life": 47.8},
      {"smiles": "COc1ccc2c(c1)c(CC(=O)OCC(=O)O)c(C)n2C(=O)c1ccc(Cl)cc1", "half-life": "> 120"},
      {"smiles": "CC(=O)NC[C@H]1CN(c2ccc(N3CCN(C(=O)CO)CC3)c(F)c2)C(=O)O1", "half-life": "> 120"},
      {"smiles": "Cc1cc(C)cc(NC(=O)Nc2cccs2)c1", "half-life": 3.55},
      {"smiles": "C#CCN(Cc1cc2c(=O)[nH]c(C)nc2cc1Br)c1ccc(C(=O)NCc2cccnc2)cc1", "half-life": 9.7},
      {"smiles": "CC1(C#N)CCN(c2c(C(=O)N3CCC(S(C)(=O)=O)CC3)cnc3cc(F)c(F)cc23)CC1", "half-life": "> 120"},
      {"smiles": "O=c1[nH]c([C@@H]2CCCN2)nc2c1oc1ccc(Cl)cc12", "half-life": "> 120"},
      {"smiles": "Cc1ccc(Cl)cc1N1CCN(C(=O)c2cn(C3CCCCC3)c(=O)c3c2c2ccccc2n3C)CC1", "half-life": 0.92},
      {"smiles": "CN1CCC(Nc2ncc3ncnc(Nc4ccc(F)c(Cl)c4)c3n2)CC1", "half-life": 116},
      {"smiles": "COc1cc(C(c2c(C)[nH][nH]c2=O)c2c(C)[nH][nH]c2=O)ccc1OC(=O)c1cccc(C)c1", "half-life": 2.21},
      {"smiles": "CCN(C(=O)c1sc2cc(OC)ccc2c1Cl)c1ccccc1", "half-life": 3.3},
      {"smiles": "Cc1ncc(Cl)cc1NCc1ccc(C(=O)NC(CC2CCCC2)C(=O)NC2CC2)s1", "note": "(centres undefined)", "half-life": 6.13},
      {"smiles": "CN(C)c1nc(Cc2ccc(NC(=O)c3ccc4ccccc4c3)cc2)nc(Cl)c1CC(=O)O", "half-life": "> 120"},
      {"smiles": "CCC(=O)N1CCC(n2nccc2NC(=O)Nc2ccccc2Cl)CC1", "half-life": 89.7},
      {"smiles": "O=C(O)c1ccc(CN2CC(COc3ccccc3)C3(C2)CN(c2ccccc2)C3)cc1", "note": "(centres undefined)", "half-life": 64.8},
      {"smiles": "O=C(NC1CC1)C1CCCN1C(=O)c1cccc(-c2ccccn2)c1", "note": "(centres undefined)", "half-life": "> 120"},
      {"smiles": "CCc1nc(C(N)=O)c(Nc2ccc(N3CCC(N4CCN(C)CC4)CC3)c(OC)c2)nc1NC1CCOCC1", "half-life": "> 120"},
      {"smiles": "CCOP(=S)(OCC)O/N=C(\\C#N)c1ccccc1", "half-life": 8.67},
      {"smiles": "O=C(NCCN1CCN(c2cccc3c2OCCO3)CC1)c1ccc(F)cc1", "half-life": 34.2},
      {"smiles": "CCOc1cc(NC(C)=O)ccc1C(=O)OC", "half-life": 6.75},
      {"smiles": "O=C(NC1CCN(CCCCC2(C(=O)NCC(F)(F)F)c3ccccc3-c3ccccc32)CC1)c1ccccc1-c1ccc(C(F)(F)F)cc1", "half-life": 13.5},
      {"smiles": "Cc1ccc(S(=O)(=O)NC(=O)NC2CCCCC2)cc1", "half-life": "> 120"},
      {"smiles": "CN(C)Cc1c(C(=O)NCCOc2ccc(C(=O)NO)cc2)oc2ccccc12", "half-life": "> 120"},
      {"smiles": "O=C(Cn1ccnc1[N+](=O)[O-])NCc1ccccc1", "half-life": "> 120"},
      {"smiles": "CCOc1ccc(NC(=O)Cn2cc(C(=O)c3cccs3)c3ccccc32)cc1", "half-life": 10.5},
      {"smiles": "Nc1ccc(C(=O)Nc2cccc(-c3nc(N4CCOCC4)c4oc5ncccc5c4n3)c2)cn1", "half-life": 56.2}
    ]}
  ]
}
